# Laboratory results from patent US20250275537A1, “CARBOXAMIDE APYRASE INHIBITORS” (Texas Crop Science, Inc., priority 2024, published 2025).
# Tested on: apyrase
# Assay: Apyrase inhibition assay (Method 1)
# Type: biochemical
# Conditions: inhibitor conc at 1 mM stock, 10 μl per well; 1 hr room temperature; rounded average of at least two assay results
# Experimental: Apyrase inhibitors useful as enhancers of pesticidal activity are assessed using an in vitro assay. The method of Windsor, Bio Techniques 33:1024-1030 (November 2002) was used as follows
# 96 well plates were used for the assay: (Greiner bio-one: REF-655901-96 well, PS, F-bottom, Clear, Non-binding)
# • Reaction Buffer: 60 mM Hepes, 3 mM MgCl2, 3 mM CaCl2 and 3 mM ATP (pH 6.5) • Development Buffer A: 2% aqueous ammonium molybdate • Development Buffer B: 11% ascorbic acid in 37.5% TCA in water • Stop buffer C: 2% trisodium citrate in 2% acetic acid solution in water • Add 100 μl of reaction buffer to each well. • Add 10 μl of DMSO (control) or inhibitor/compound or compounds such as N1915 or orthovanadate to each well. (use inhibitor conc at 1 mM; orthovanadate at 2 mM and N1915 at 1 mM) • Add 10 μl of apyrase (concentration based on optimization —Dilute 1 U/μl enzyme to different concentrations such as 0.1U, 0.05U, 0.0025, 0.001U, 0.0005U—to find a good range) • Incubate plate at room temperature for 1 hr • Mix development buffer A and B in the ratio of 1:1.5 (just before use). • Add 50 ul of A:B mix in each well (incubate for 2 mins) • Add 50 ul of C in each well • Measure/Read Absorbance of plate @630 nm
# Inhibitory data for the apyrase assay described above are provided for selected compounds in Table 3. In Table 3, D indicates inhibition of <10%.
# With reference to Table 3, percent inhibition of apyrase is reported as the rounded average of at least two assay results.
row,SMILES,% Inhibition of Apyrase
1,"Cc1ccc(NC(=O)c2ccc(C(=O)Nc3ccc(C)cc3)cc2)cc1 [Compound I-1, N^1,N^4-di-p-tolylterephthalamide]",A (A indicates inhibition above 30%)
2,"CSc1cccc(NC(=O)c2ccc(C(=O)Nc3cccc(SC)c3)cc2)c1 [Compound I-2, N^1,N^4-bis(3-(methylthio)phenyl)terephthalamide]",A (A indicates inhibition above 30%)
3,"O=C(Nc1ccccc1)c1cccc(C(=O)Nc2cc3c(cc2Cl)OCO3)c1 [Compound I-4, N^1-(6-chlorobenzo[d][1,3]dioxol-5-yl)-N3-phenylisophthalamide]",A (A indicates inhibition above 30%)
4,"O=C(Nc1ccc2c(c1)OCO2)c1ccc(C(=O)Nc2ccc3c(c2)OCO3)cc1 [Compound I-5, N^1,N^4-bis(benzo[d][1,3]dioxol-5-yl)terephthalamide]",A (A indicates inhibition above 30%)
5,"O=C(Nc1ccc2c(c1)OCCO2)c1ccc(C(=O)Nc2ccc3c(c2)OCCO3)cc1 [Compound I-6, N^1,N^4-bis(2,3-dihydrobenzo[b][1,4]dioxin-6-yl)terephthalamide]",A (A indicates inhibition above 30%)
6,"CCOC(=O)c1ccc(NC(=O)c2cccc(C(=O)Nc3ccc(C(=O)OCC)cc3)c2)cc1 [Compound I-7, diethy 1 4,4′-(isophthaloylbis(azanediyl))dibenzoate]",A (A indicates inhibition above 30%)
7,"COc1ccc(C)cc1NC(=O)c1ccccc1C(=O)N(C)C1CCCCC1 [Compound I-8, N^1-cyclohexyl-N^2-(2-methoxy-5-methylphenyl)-N^1-methylphthalamide]",A (A indicates inhibition above 30%)
8,"Cc1cccc(CNC(=O)c2ccc(C(=O)Nc3cccc(-n4ccnn4)c3)cc2)c1 [Compound I-9, N^1-(3-(1H-1,2,3-triazol-1-yl)phenyl)-N^4-(3-methylbenzyl)terephthalamide]",A (A indicates inhibition above 30%)
9,"O=C(Nc1cccc(N2CCCC2)c1)c1ccc2c(c1)C(=O)NC2=O [Compound I-10, 1,3-dioxo-N-(3-(pyrrolidin-1-yl)phenyl)isoindoline-5-carboxamide]",B (B indicates inhibition of from 20% to 30%)
10,"CC1(C)NC(=O)N(c2cccc(NC(=O)c3cccc(C(=O)Nc4ccccc4)c3)c2)C1=O [Compound I-11, N^1-(3-(4,4-dimethyl-2,5-dioxoimidazolidin-1-yl)phenyl)-N^3-phenylisophthalamide]",B (B indicates inhibition of from 20% to 30%)
11,"CN(C)C(=O)c1ccccc1C(=O)Nc1ccc2c(c1)OCCCO2 [Compound I-12, N^1-(3,4-dihydro-2H-benzo[b][1,4]dioxepin-7-yl)-N^2,N^2-dimethylphthalamide]",B (B indicates inhibition of from 20% to 30%)
12,"CCNC(=O)c1cc(NC(=O)c2ccc(C(=O)Nc3ccccc3)cc2)nc2ccccc12 [Compound I-13, N^1-(4-(ethylcarbamoyl)quinolin-2-yl)-N^4-phenylterephthalamide]",B (B indicates inhibition of from 20% to 30%)
13,"CC(C)Cn1c(=O)c2ccccc2c(=O)n1C [Compound I-15, 2-isobutyl-3-methyl-2,3-dihydrophthalazine-1,4-dione]",B (B indicates inhibition of from 20% to 30%)
14,"O=C(Nc1ccccc1)c1cccc(C(=O)Nc2[nH]ncc2-c2ccc3c(c2)OCO3)c1 [Compound I-16, N1-(4-(benzo[d][1,3]dioxol-5-yl)-1H-pyrazol-5-yl)-N3-phenylisophthalamide]",B (B indicates inhibition of from 20% to 30%)
15,"O=C(Nc1ccc(-c2c[nH]cn2)cc1)c1cccc(C(=O)Nc2ccc(-c3c[nH]cn3)cc2)c1 [Compound I-17, N^1,N^3-bis(4-(1H-imidazol-4-yl)phenyl)isophthalamide]",B (B indicates inhibition of from 20% to 30%)
16,"CN(C(=O)c1ccccc1C(=O)Nc1ccc2c(c1)OCO2)C1CCCCC1 [Compound I-18, N^1-(benzo[d][1,3]dioxol-5-yl)-N^2-cyclohexyl-N^2-methylphthalamide]",B (B indicates inhibition of from 20% to 30%)
17,"Cc1n[nH]c2cc(NC(=O)c3cccc(C(=O)Nc4ccc5c(C)n[nH]c5c4)c3)ccc12 [Compound I-19, N^1,N^3-bis(3-methyl-1H-indazol-6-yl)isophthalamide]",B (B indicates inhibition of from 20% to 30%)
18,"COc1cc(NC(=O)c2ccc(C(=O)Nc3cc(OC)cc(OC)c3)cc2)cc(OC)c1 [Compound I-20, N1,N4-bis(3,5-dimethoxyphenyl)terephthalamide]",C (C indicates inhibition of from 10% to 20%)
19,"CCc1noc(C)c1Cn1c(=O)c2ccccc2c(=O)n1C [Compound I-21, 2-((3-ethyl-5-methylisoxazol-4-yl)methyl)-3-methyl-2,3-dihydrophthalazine-1,4-dione]",C (C indicates inhibition of from 10% to 20%)
20,"CCn1cc2ccc(NC(=O)c3cccc(C(=O)NC)c3)cc2n1 [Compound I-22, N^1-(2-ethy1-2H-indazol-6-yl)-N^3-methylisophthalamide]",C (C indicates inhibition of from 10% to 20%)
21,"O=C(NCC#Cc1ccccc1)c1ccc(C(=O)Nc2ccccc2)cc1 [Compound I-23, N1-phenyl-N4-(3-phenylprop-2-yn-1-yl)terephthalamide]",C (C indicates inhibition of from 10% to 20%)
22,"CC(C)n1cc2ccc(NC(=O)c3ccc4c(c3)C(=O)NC4=O)cc2n1 [Compound I-24, N-(2-isopropyl-2H-indazol-6-yl)-1,3-dioxoisoindoline-5-carboxamide]",C (C indicates inhibition of from 10% to 20%)
23,"Nc1ccc(N2C(=O)c3ccccc3C2=O)c(Cl)c1 [Compound I-25, 2-(4-amino-2-chlorophenyl)isoindoline-1,3-dione]",C (C indicates inhibition of from 10% to 20%)
24,"Cn1nc(Cn2c(=O)c3ccccc3c(=O)n2C)cc1Cl [Compound I-26, 2-((5-chloro-1-methyl-1H-pyrazol-3-yl)methyl)-3-methyl-2,3-dihydrophthalazine-1,4-dione]",C (C indicates inhibition of from 10% to 20%)
25,"O=C(NCc1cccc(-n2ccnc2)c1)c1ccc(C(=O)Nc2ccccc2)cc1 [Compound I-27, N^1-(3-(1H-imidazol-1-yl)benzyl)-N^4-phenylterephthalamide]",C (C indicates inhibition of from 10% to 20%)
26,"COC(C)(C)CNC(=O)c1ccc(C(=O)Nc2ccccc2)cc1 [Compound I-28, N^1-(2-methoxy-2-methylpropyl)-N^4-phenylterephthalamide]",C (C indicates inhibition of from 10% to 20%)
27,"O=C(Nc1ccccc1)c1cccc(C(=O)Nc2cccc(-c3nnn[nH]3)c2)c1 [Compound I-29, N^1-(3-(1H-tetrazol-5-yl)phenyl)-N^3-phenylisophthalamide]",C (C indicates inhibition of from 10% to 20%)
